From a melting point compilation (Tetko et al.; mined from patent text by program, amines drawn as free bases though some values may be those of a salt)

`OCCN1CCN(c2cc(Cl)nnc2Cl)CC1` showed a melting point of 139 to 141 °C. Work on `C=CCc1cc2c(c(CC=C)c1O)OCC(=O)N2CC=C` yielded a melting point of 91 to 92 °C. `O=[N+]([O-])N=C1NCCN1Cc1ccc(OCC(F)(F)F)nc1` gave a melting point of 109 to 112 °C. `Cc1c(-c2ccccc2)oc2c(C(=O)OCC3CO3)cccc2c1=O` (stereo not drawn) showed a melting point of 103 to 105 °C. `CSC1=Nc2cc(Cl)ccc2Nc2cscc21` gave a melting point of 111 to 113 °C. Compound `CN(C)c1ccc(NC(=O)N(CCC2=CCCCC2)C[C@H]2CCC[C@H](CN(CCC3=CCCCC3)C(=O)Nc3ccc(N(C)C)cc3)C2)cc1` (relative stereo) has a melting point of 80 to 83 °C. `Cc1cc(C(C)(C)C)c(OC(=O)c2cc(C(C)(C)C)c(O)c(C(C)(C)C)c2)c(C)c1COC(=S)c1cc(C(C)(C)C)c(O)c(C(C)(C)C)c1` showed a melting point of 225 to 228 °C. In the case of `CCCc1c(OCc2cccc(C(=O)O)c2OCC)ccc(C(C)=O)c1O`, the melting point is reported as 154 to 156 °C. Compound `Cc1nc(N2CCN(Cc3ccc(F)cc3)C2=O)sc1C(=O)NCc1ccccn1` has a melting point of 183 to 185 °C. Compound `CC(Nc1c(-c2ccc(C#N)cc2)c(=O)c1=O)C(C)(C)C` (stereo not drawn) has a melting point of 192 to 194 °C. `CNc1nc(Br)cnc1N` gave a melting point of 121 °C. Work on `COc1ccc(Cl)c2c1NC(=O)C2=[N+]=[N-]` yielded a melting point of 206 to 207 °C. Compound `CCOC(=O)C1(NC=O)Cc2cccc3c2N(CCC3)C1=O` (stereo not drawn) has a melting point of 103 to 106 °C. `CCCCNC(=O)C(C)(C)COc1cccc2nc(C)c(C(=O)O)c(N)c12` gave a melting point of 195 to 199 °C. For `O=C1CCOc2ccc(-c3ccccc3)cc21`, the melting point was 74 to 75 °C. `COc1ccc(CC(C)(N)C(=O)O)cc1` (stereo not drawn) showed a melting point of 243 to 244 °C. `Cc1ccc(-c2nc3sc4ccccc4n3c2CC(N)=O)s1` gave a melting point of 243 to 245 °C. `CCCC(C)(C)c1cc(C=O)cc(C(C)(C)CCC)c1O` showed a melting point of 90 to 92 °C. `COc1ccc(C2CCOCC2)c2sc(NC(=O)N(C)[C@H]3CC[C@H](O)CC3)nc12` showed a melting point of 160 °C. `CCC(=O)NCC(CO)c1cccc2ccc(OC)cc12` (stereo not drawn) showed a melting point of 128 to 129 °C. `CC1([C@H]2CC[C@@H](O)CC2)CC1` showed a melting point of 56 to 57 °C. `CCCC(O)C1(CCC)c2ccccc2-c2ccccc21` (stereo not drawn) gave a melting point of 83 to 85 °C. Compound `O=c1ccc(C(F)(F)F)cn1-c1ccc(NCCO)cc1Cl` has a melting point of 161 to 164 °C. In the case of `CC(=O)c1cccc2cc[nH]c12`, the melting point is reported as 65 to 66 °C. With `CC(C)CC(NC(=O)c1cc(F)ccc1SSc1ccc(F)cc1C(=O)NC(CC(C)C)C(=O)O)C(=O)O` (stereo not drawn) the melting point was 246 to 247 °C. Compound `CNC(=S)NCCSCc1csc(N)n1` has a melting point of 136 to 140 °C. Work on `CC(C)c1ccc(F)c(C(C)C)c1NC(=O)CN1CCN(CCSc2nc3ccccc3o2)CC1` yielded a melting point of 142 to 144 °C. `N#Cc1c(Cl)cc(Cl)cc1[N+](=O)[O-]` showed a melting point of 102 to 103 °C. Compound `COc1ccc(C(=O)N2c3ccccc3C(n3c4ccccc4c4ccccc43)CC2CCCCCN2CCC(c3cccc(C(F)(F)F)c3)CC2)cc1OC` (stereo not drawn) has a melting point of 149 to 150 °C. Work on `CCCc1c(OCCCCCc2nnn[nH]2)ccc(C(C)=O)c1O` yielded a melting point of 95 to 96 °C. Compound `Cn1cc(S(C)(=O)=O)c(=O)c2ccc(Cl)cc21` has a melting point of 241 to 242 °C. `C#CCOc1nc(-n2ncc(C(=O)OCC)c2N)c(C(F)(F)F)cc1Cl` gave a melting point of 118 to 119 °C. For `CC(C)OC(=O)C1=C2SCC(=CC(=O)N(C)C)N2CC1C` (stereo not drawn), the melting point was 126 to 128 °C. With `CCOC(=O)c1nc2ccccc2[nH]c1=O` the melting point was 169 to 170 °C. Compound `CC(=O)c1c(-c2ccc(F)cc2)ncn1C1CC(C)(C)NC(C)(C)C1` has a melting point of 134 to 136 °C. Work on `O=S(=O)(Oc1cc(I)c(I)cc1OS(=O)(=O)C(F)(F)F)C(F)(F)F` yielded a melting point of 46.5 to 47.7 °C. Compound `CCOC(=O)c1cnn(-c2cccc(Cl)c2)c1N` has a melting point of 115 to 117 °C. Work on `CC[N+](CC)(CC)C1CC(=O)N1C(C(=O)OCc1ccc([N+](=O)[O-])cc1)=C([O-])CCSC` (stereo not drawn) yielded a melting point of 91 °C. `CCSC(=O)c1nc(N)ccc1Oc1nc(OC)cc(OC)n1` showed a melting point of 115 to 118 °C. Compound `CC(C)n1c(Cl)nc2ccccc21` has a melting point of 58 to 60 °C. `O=[N+]([O-])c1ccc(N2C3C4CCC(C4)C32)c2nnoc12` (stereo not drawn) showed a melting point of 132 to 133 °C. In the case of `COCC1(C)CC(n2ccccc2=O)c2cc(C(N)=O)ccc2O1` (stereo not drawn), the melting point is reported as 177 to 179 °C. For `COc1cc(CCC(=O)C2CCCC2=O)cc(OS(=O)(=O)c2ccc(C)cc2)c1OC` (stereo not drawn), the melting point was 84 °C. For `CNc1ccc(C)cc1C(=O)Cc1nnnn1C`, the melting point was 141 to 143 °C. `O=C1OC(c2ccccc2)(c2ccccc2)C2CN(c3nc4ccccc4o3)CCN12` (stereo not drawn) gave a melting point of 260 °C. Work on `CC(C)(C)OC(=O)N[C@H]1CC[C@H](CCOS(C)(=O)=O)CC1` yielded a melting point of 116 °C. For `COC(=O)c1cc(C(=O)NNC(=O)c2ccccn2)c2cc(Cc3ccc(F)cc3)cnc2c1O`, the melting point was 164 to 166 °C. For `COC(=O)[C@H](CO)NC(=O)c1ncn2c1CN(C)C(=O)c1c(Cl)cccc1-2`, the melting point was 178 to 180 °C. For `O=C(OCc1ccccc1)c1ccc(CCCOCCCCCCNCC(O)c2ccc(O)c(CO)c2)cc1` (stereo not drawn), the melting point was 51 to 52 °C. `OC(c1ccccc1)c1ccccc1Cl` (stereo not drawn) showed a melting point of 61 to 63 °C. Work on `Cc1c(Cl)cccc1-n1nc(C(N)=O)nc1-c1ccccc1` yielded a melting point of 198 to 200 °C. Work on `CC(C)C(CN=C(O)C(Cl)=C(Cl)C(=O)O)c1ccc(Cl)cc1` (stereo not drawn) yielded a melting point of 91 to 92 °C. In the case of `CCOCc1nc2cnc3cc(OCc4ccccc4)ccc3c2n1CC1COC(C)(C)O1` (stereo not drawn), the melting point is reported as 110 to 111 °C. In the case of `Cc1ccc(S(=O)(=O)n2ccc3cc(F)cnc32)cc1`, the melting point is reported as 160 °C. For `CN(C)C=C1Cc2c(Cl)cccc2C1=O`, the melting point was 148 to 150 °C. `CC(C)(C)OC(=O)N1CCC(Nc2nc3ccccc3n2Cc2cnc(CO)o2)CC1` gave a melting point of 132 °C. In the case of `CC(C)n1nc(-c2sc(C(=O)NC3CC3)nc2-c2cccc(Cl)c2)ccc1=O`, the melting point is reported as 118 to 120 °C. `CC1(C)CN(C2CCN(c3ccc(F)c(Cl)c3)C2=O)C1=O` (stereo not drawn) showed a melting point of 120 to 121 °C. With `CC1(C)COc2ccc(C[C@@H](NC(=O)c3cccc4c3C=CCCC4)[C@@H](O)c3cccc(Cl)c3)cc21` (racemic) the melting point was 149 to 150 °C. For `Cc1cc(C2=NOC(c3cc(Cl)cc(Cl)c3)(C(F)(F)F)C2)ccc1C(=O)O` (stereo not drawn), the melting point was 146 to 148 °C. `CCCCOCCOc1ccc(-c2ccc3c(c2)C=C(C(=O)Nc2ccc(SCc4nccn4CCCC(N)=O)cc2)CCN3CC(C)C)cc1` gave a melting point of 142 to 143 °C. For `CCOC(=O)c1ccc2c(c1)ncn2-c1cccc(COCc2ccccn2)c1`, the melting point was 99.8 to 101 °C. Work on `CCCCn1nc(C(C)=O)nc1Cc1ccc(-c2ccccc2-c2nnn[nH]2)nc1` yielded a melting point of 157 to 159 °C. For `N#CN1CCC2(CC1)CN(c1ccccc1F)c1ccccc12`, the melting point was 131 to 132 °C. Compound `O=c1c(N2CCCNCC2)nc2cc(F)ccc2n1-c1ccccc1` has a melting point of 151 to 152 °C. `CC(C)C[C@H](NS(=O)(=O)c1ccccc1)C(=O)NC(C)(C)C(=O)c1c(-c2ccccc2)c1=O` showed a melting point of 53 to 59 °C. Compound `O=C(CSc1ccc(Cl)cc1C(=O)O)c1ccccc1` has a melting point of 154 to 156 °C. For `Cc1c(C)c(C=O)c2c(c1C)CC(C)(C)O2`, the melting point was 87 to 88 °C. With `O=C(O)CCCOc1cccc(CN2CCCCC2)c1` the melting point was 73 to 77 °C. Work on `CCOC(=O)c1cn(-c2csnn2)c2cc(F)c(F)cc2c1=O` yielded a melting point of 198 to 203 °C. For `Cc1cc(NS(=O)(=O)c2ccccc2)no1`, the melting point was 107 to 108 °C. For `O=C(O)CCNc1ccccc1CNC(=O)C1Cc2ccccc2N1S(=O)(=O)c1ccc(-c2ccc(F)cc2F)cc1` (stereo not drawn), the melting point was 106 to 110 °C. In the case of `Fc1ccc2[nH]c(SCC(F)(F)F)nc2c1`, the melting point is reported as 136 to 139 °C. With `COC(=O)c1cc(CCCc2cc3c(=O)[nH]c(N)nc3[nH]2)cs1` the melting point was 182 to 183 °C. Compound `C=CCOc1ccc(C(=O)C=Cc2cc(OC)ccc2OC)cc1` has a melting point of 86 to 87 °C. Work on `CN(C)C(=O)c1ccc2c(c1)C(c1ncnc3cc(OCCCN4CCOCC4)ccc13)C(=O)N2` (stereo not drawn) yielded a melting point of 168 to 169 °C. Work on `COc1cc(Nc2nccc(Nc3ccc(CC(=O)O)cc3)n2)cc(OC)c1OC` yielded a melting point of 144 to 150 °C. For `CC(C)OC(=O)C1CCCN1S(=O)(=O)c1ccc(N2CCC(=O)CC2)cc1` (stereo not drawn), the melting point was 97 to 101 °C. `COc1ccc(C2(O)c3ccccc3C(=O)N2CCc2cccc(OC)c2)cc1` (stereo not drawn) showed a melting point of 119 °C. With `CC1=C(C(=O)OCC(C)C)C(c2cccc([N+](=O)[O-])c2)c2c(N)nc(N)nc2N1` (stereo not drawn) the melting point was 130 °C. `Cc1cccc2c1O[C@@H](CN1CCC(CNC(=O)c3cccnc3N)CC1)CO2` gave a melting point of 56 to 58 °C. `CC(C)(C)OC(=O)Nc1cc(N2CCOC2=O)c(-c2ccc(F)cc2)cc1[N+](=O)[O-]` showed a melting point of 201 °C. `C[C@]1(COc2ccc(N3CCN(c4ccc(OC(F)(F)F)cc4)CC3)cc2)Cn2cc([N+](=O)[O-])nc2O1` gave a melting point of 262 to 265 °C. In the case of `Nc1nc2c(s1)CCN(CC1=Cc3ccccc3CC1)CC2`, the melting point is reported as 158 to 160 °C. `CCOC(=O)Oc1ccc(S(=O)(=O)N2c3cc(F)c(F)cc3-n3cccc3C2CC)cc1` (stereo not drawn) showed a melting point of 105 to 107 °C. `Cc1ccc(NC(=O)c2ccc(CN3CCN(C)CC3)c(C(F)F)c2)cc1Nc1nccc(-c2cncnc2)n1` gave a melting point of 206 to 207 °C. `COCCn1nc2c(N)nc3ncccc3c2c1CC1CCOCC1` showed a melting point of 230 to 233 °C. Compound `CC(C)(C)[C@H]1Cn2c(nc3c(C4OCCO4)cccc32)-c2ccccc2O1` has a melting point of 150 to 152 °C. Compound `C=CCN(CC(N)=O)S(=O)(=O)Cc1cccc(C(F)(F)F)c1` has a melting point of 91 to 92 °C. In the case of `CCOc1ccc2[nH]c(=O)n(C(C)(C)COC)c2c1`, the melting point is reported as 149 °C. For `CN(C(=O)c1ccc(Cl)cc1)[C@@H]1CCN(C(=O)Nc2ccc(F)nc2)C[C@H]1c1ccc(Cl)c(Cl)c1`, the melting point was 156 to 158 °C. Work on `COc1ccc(C=O)cc1OCc1ccc2ccccc2c1` yielded a melting point of 80 °C. For `COc1ccc2c(c1OC)CC1C(=O)N(Cc3ccccc3)C(=O)C21` (stereo not drawn), the melting point was 130 to 132 °C. With `O=c1c2ccc(Cl)cc2[nH]n1-c1ccccc1F` the melting point was 205 to 215 °C. For `CC1Sc2c(C(=O)O)c(=O)c3cc(F)c(N4CCNCC4)c(F)c3n21` (stereo not drawn), the melting point was 260 °C. With `N#CCCNC(=O)c1cccc(-c2cccc3nn(Cc4ccc(F)cc4)cc23)c1` the melting point was 133 to 134 °C. `COc1ccc(C2(c3ccc(OC)cc3)CCN(CC[C@@H]3C=C4c5cccc6[nH]cc(c56)C[C@H]4N(C)C3)CC2)cc1` gave a melting point of 184 to 187 °C. With `Cc1ccc(Cl)c(Nc2ccccc2C(N)=S)c1Cl` the melting point was 134 to 136 °C.
